Results: patent US8129547B2, “Anticoagulation of human blood ex vivo” (priority 2006, dated 2012)
Counter-ions that a name gives are not always drawn.

Key:
[1] = system: thrombocytes; assay: Thrombocyte propagation on plastic object carriers, Example 4; type: cell-based, human; conditions: PRP, 24 hours after blood sampling
Procedure: (§1) For this purpose blood was taken within 1 hour from 12 healthy subjects. 1 aliquot of each of the 12 blood samples was anticoagulated with citrate and 1 other aliquot of the 12 blood samples was anticoagulated with a direct inhibitor of the blood coagulation factor Xa. For this purpose 9 parts of blood were mixed with 1 part of citrate (0.106 mol/l) or 1 part of inhibitor solution in a suitable concentration. Platelet-rich plasma (PRP) was manufactured by centrifuging at 164×g over 10 minutes. The thrombocytes in PRP were activated by induced aggregation according to Born with 5 μmols/l of ADP, 2 μg/ml of collagen and 0.5 mmol/l of arachidonic acid. Impedance full blood aggregometry was carried out with the Multiplate aggregometer and with 6.5 μmols/l of ADP, 3.2 μg/ml of collagen and 0.5 mmol/l of arachidonic acid. The analyses were conducted 1, 2, 3, 4, 5, 10 and 24 hours after blood sampling.
On the contrary, less than 10% of the thrombocytes in RPR anticoagulated with citrate were still propagated 24 hours after blood sampling.

[2] = system: thrombocytes; assay: Induced aggregation of thrombocytes (Born in PRP, impedance full blood aggregometry) after anticoagulation, Example 4; type: cell-based, human; conditions: 24 hours after sampling; ADP, collagen, arachidonic acid
Procedure: as §1

[3] = molecular target: T1, Factor VIIa (Homo sapiens, UniProt P08709); assay: Determination of Ki values, chromogenic substrate, Dixon evaluation: Factor VIIa; type: biochemical; conditions: 25° C., tris buffer pH 8.0, substrate CH3SO2-D-phe-Gly-Arg-pNA
T1 construct: purchased Haemochrom Diagnostica GmbH (Essen, D)
T1 sequence (P08709 213-466 limits assumed): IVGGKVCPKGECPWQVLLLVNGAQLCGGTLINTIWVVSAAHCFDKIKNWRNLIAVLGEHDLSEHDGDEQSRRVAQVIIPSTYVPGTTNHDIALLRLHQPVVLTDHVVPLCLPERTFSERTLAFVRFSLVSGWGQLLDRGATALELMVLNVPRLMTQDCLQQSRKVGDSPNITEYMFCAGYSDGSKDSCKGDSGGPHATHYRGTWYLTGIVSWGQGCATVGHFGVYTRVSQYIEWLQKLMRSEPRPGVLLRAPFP
T1 sequence (P08709 61-212 partner limits assumed): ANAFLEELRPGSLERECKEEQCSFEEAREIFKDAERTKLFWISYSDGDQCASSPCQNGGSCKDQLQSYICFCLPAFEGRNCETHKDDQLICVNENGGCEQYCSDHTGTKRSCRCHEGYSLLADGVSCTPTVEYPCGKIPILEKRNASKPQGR
Text: (§2) The inhibitors used here are the commercially available exemplary inhibitors Pefabloc tPA/Xa (2,7-bis(4-amidinobenzylidene)-cyclopeptanone-(1), Pentapharm Ltd. Basel, Switzerland), CJ-FXa (benzylsulphonyl-D-arginyl-glycyl-4-amidinobenzylamide, Haemochrom GmbH, Essen, Germany) and CJ-PK (benzylsulphonyl-D-seryl-carbobenzoxylsyl-4-amidinobenzylamide, Haemochrom GmbH, Essen, Germany). Research samples were available of DX-9065a ((+)-(2S)-2-[4-[[3S)-1-acetimidoyl-3-pyrrodinyl]oxy]phenyl]-3-[7-amidino-2-naphthyl]propanic acid, Daiichi Pharmaceutical Company Ltd., Tokyo, Japan), and Otamixaban (2-(R)-(3-carbamimidoylbenyzyl)-3-(R)-[4-(1-oxypyridin-4-yl)benzoylamino]-butyric acid-methylester, Sanofi-Aventis GmbH, Frankfurt, Germany), both of which are undergoing clinical tests. In order to examine the inhibitory action of these exemplarily used inhibitors on the blood coagulation factors plasma-kallikrein, VIIa, Xa, XIa and XIIa, the Ki values of the respective enzyme-inhibitor complexes were determined.
(§3) The enzymes were produced by Haemochrom Diagnostica GmbH (Essen, D) and were dissolved in 0.154 mol/l NaCl. The substrates (Pentapharm AG, Basel, CH) were dissolved in H2O and the inhibitor was dissolved in the above-mentioned tris buffer. The following substrates were used for the individual enzymes:
(§4) 200 μl of inhibitor solution were mixed with 25 μl of substrate for the determination and the reaction was started by the addition of 50 μl of enzyme. After a reaction time of 3-5 mins. 25 μl of acetic acid (50%) were added and the extinction was measured at 405 nm with a microplate reader (iEMS Reader MF 12401, Labsystems, Helsinki, Finland). The evaluation was carried out graphically according to Dixon (Biochem. J., 55, 170, 1953).
(§5) The enzymes were produced by Haemochrom Diagnostica GmbH (Essen, D), and only thrombin was manufactured in our own laboratory according to Walsmann (Pharmazie 23, 401-402, 1968). All the enzymes were dissolved in 0.154 mol/l NaCl. The substrates (Pentapharm AG, Basel, CH) were dissolved in H2O and the inhibitor was dissolved in the above-mentioned tris buffer. The following substrates were used for the individual enzymes:
as §4, with “1401,” for “12401,”

[4] = molecular target: T2, Factor XIIa (Homo sapiens, UniProt P00748); assay: Determination of Ki values, chromogenic substrate, Dixon evaluation: Factor XIIa; type: biochemical; conditions: 25° C., tris buffer pH 8.0, substrate H-D-HHT-Gly-Arg-pNA
T2 construct: purchased Haemochrom Diagnostica GmbH (Essen, D)
T2 sequence (P00748 373-615 limits assumed): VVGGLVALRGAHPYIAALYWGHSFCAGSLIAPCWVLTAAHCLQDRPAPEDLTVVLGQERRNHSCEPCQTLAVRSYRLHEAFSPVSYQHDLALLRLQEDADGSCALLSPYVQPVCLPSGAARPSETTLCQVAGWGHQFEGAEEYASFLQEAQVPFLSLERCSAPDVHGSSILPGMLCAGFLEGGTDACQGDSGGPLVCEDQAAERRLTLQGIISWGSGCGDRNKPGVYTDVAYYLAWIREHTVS
Text: as §2, §3, §4, §5
as §4, with “1401,” for “12401,”

[5] = system: human vein blood; assay: Storage of human vein blood after anticoagulation with inhibitor (F1+2 immunoassay)
Procedure: In the sense of the invention anticoagulation means that the re-formation of thrombin is inhibited in the sampled blood. According to the invention thrombin re-formation is inhibited when no more than 1 nM of thrombin is re-formed in the sampled blood. As described above, the activation of prothrombin to thrombin represents an essential step in the blood coagulation cascade. In this case the prothrombin fragment 1+2 (F1+2) is released in equivalent quantities. It is therefore possible to quantify the thrombin actually formed by determining the fragment produced, thus enabling the prothrombin fragment F1+2 to be used as an indirect marker of an activation of prothrombin to thrombin. The concentration of the prothrombin fragment F1+2 formed may be determined immunologically, for example, with commercial enzyme immunoassays (for example Enzygnost F1+2 micro, Dade Behring GmbH, Marburg).
According to the invention anticoagulation therefore means that no more than 1 nM of prothrombin fragment F1+2 is newly formed in the blood after its sampling. […] Without suitable treatment of the blood to prevent coagulation there is an increase in the concentration of the prothrombin fragment F1+2 in this example to well over 1.3 nM, within a few minutes, due to the plasmatic coagulation, i.e. the blood coagulates.
In this experiment it was determined how long human vein blood can be stored without the formation of thrombin or activation of thrombocytes.
For this purpose blood (9 parts) sampled from a patient was mixed with inhibitor solution (0.05 mM, 0.5 mM or 5 mM in physiological NaCl solution; 1 part). Some of the blood was stored at 25° C., the remainder in the refrigerator at 4° C. The quantity of thrombin formed was determined immunologically during storage based on the formation of the prothrombin fragment F1+2 (Enzygnost F1+2 micro, Dade Behring GmbH, Marburg). […] In this case it is irrelevant whether the blood samples were kept at room temperature (approx. 25° C.) or at 4° C.
For this purpose blood (9 parts) sampled from a patient was mixed with inhibitor solution (0.05 mM, 0.5 mM or 5 mM in physiological NaCl solution; 1 part) and stored at room temperature (about 22±2° C.). The quantity of thrombin formed was determined immunologically during storage based on the formation of the prothrombin fragment F1+2 (Enzygnost F1+2 micro, Dade Behring GmbH, Marburg). It was shown that BAPA′ is capable of keeping anticoagulated blood uncoagulated at a concentration in the blood of 500 μM or 50 μM for more than 48 hours (Table 4). At a concentration of 5 μM BAPA′ prevents coagulation for more than 8 hours.

[6] = molecular target: T3, Factor XIa (Homo sapiens, UniProt P03951); assay: Determination of Ki values, chromogenic substrate, Dixon evaluation: Factor XIa; type: biochemical; conditions: 25° C., tris buffer pH 8.0, substrate H-D-Lys(Cbo)-Pro-Arg-pNA
T3 construct: purchased Haemochrom Diagnostica GmbH (Essen, D)
Text: as §2, §3, §4, §5
as §4, with “1401,” for “12401,”

[7] = molecular target: T4, Plasma-kallikrein (Homo sapiens, UniProt P03952); assay: Determination of Ki values, chromogenic substrate, Dixon evaluation: plasma-kallikrein; type: biochemical; conditions: 25° C., tris buffer pH 8.0, substrate Bz-Pro-Phe-Arg-pNA; read-out: Ki PK (plasma-kallikrein)
T4 construct: purchased Haemochrom Diagnostica GmbH (Essen, D)
Text: In a particularly preferred embodiment the compound according to Formula (I) inhibits not only the blood coagulation factor XA but also thrombin and/or plasma kallikrein. […] Here too the Ki value stands for the dissociation constant of the respective enzyme-inhibitor complex. The determination of the Ki values of the inhibitors vis-a-vis thrombin and plasma kallikrein is preferably carried out in a similar manner to the determination, described above, of the Ki values of the inhibitors vis-a-vis the coagulation factor Xa, but in this case CH3SO2-D-HHT-gly-arg-pNA (with HHT=hexahydrothyrosin, and pNA=para-nitroaniline; sold under the commercial name Pefachrome tPA) are used as substrates in the case of thrombin and bz-pro-phe-arg-pNA (with bz=[…], and pNA=para-nitroaniline; sold under the commercial name Chromozym PK) in the case of plasma-kallikrein.
as §2, §3, §4, §5
as §4, with “1401,” for “12401,”

[8] = molecular target: T5, Factor Xa (Homo sapiens, UniProt P00742); assay: Determination of Ki values, chromogenic substrate, Dixon evaluation: Factor Xa; type: biochemical; conditions: 25° C., tris buffer pH 8.0, substrate CH3OCO-D-Cha-Gly-Arg-pNA
T5 construct: purchased Haemochrom Diagnostica GmbH (Essen, D)

[9] = system: thrombin formation; assay: Inhibition of thrombin formation (prothrombin fragment F1+2) in hirudin-anticoagulated plasma after activation by kaolin; type: biochemical, human; conditions: inhibitor 100 μM, 37° C.
Procedure: In this example thrombin formation was activated in plasma anticoagulated with hirudin by the addition of kaolin and the ability of the inhibitors to inhibit thrombin formation was examined.
Blood sampled from a patient was initially anticoagulated by means of the thrombin inhibitor hirudin. For this purpose 9 parts of blood were mixed with 1 part of hirudin solution (recombinant hirudin HBW 023, Hoechst, Frankfurt, 2000 E/ml of physiological NaCl solution), then centrifuged for 10 minutes at 1300 revolutions per minute (rpm). 900 μl of the plasma anticoagulated with hirudin, present in excess, were mixed in polypropylene tubes with 50 μl of inhibitor solution or 0.9% NaCl solution and 50 μl kaolin suspension (from APTT-Test from Roche Diagnostics, diluted 1:250 before use with physiological NaCl solution), and incubated at 37° C. with light shaking. In this case kaolin acts as a non-physiological surface which activates the blood coagulation thereby finally stimulating thrombin formation. At certain times the quantity of the thrombin formed was determined immunologically on the basis of the formation of the prothrombin fragment F1+2 (Enzygnost F1+2 micro, Dade Behring GmbH, Marburg). This determination is based on an enzyme immunoassay according to the sandwich principle. For this purpose aliquot volumes (600 μl) were anticoagulated at certain times with 0.1 M EDTA (40 μl) and kept at −20° C. To determine the concentration of the prothrombin fragment F1+2 50 μl of plasma (if necessary diluted with PBS, phosphate-buffered saline) were incubated with monoclonal antibodies against the human prothrombin fragment F1+2, which were fixed on a microtitre plate included in the test kit. After a washing stage with PBS, which was used to remove sample material not bound by the antibodies, antibodies conjugated with peroxidase were incubated against human prothrombin binding to the free F1+2 determinants. […] This was then determined photometrically at a wavelength of 492 nm. […]

[10] = 25° C., concentration in the blood 50 μM
[11] = 25° C., concentration in the blood 500 μM

T4 sequence (P03952 391-638 limits assumed): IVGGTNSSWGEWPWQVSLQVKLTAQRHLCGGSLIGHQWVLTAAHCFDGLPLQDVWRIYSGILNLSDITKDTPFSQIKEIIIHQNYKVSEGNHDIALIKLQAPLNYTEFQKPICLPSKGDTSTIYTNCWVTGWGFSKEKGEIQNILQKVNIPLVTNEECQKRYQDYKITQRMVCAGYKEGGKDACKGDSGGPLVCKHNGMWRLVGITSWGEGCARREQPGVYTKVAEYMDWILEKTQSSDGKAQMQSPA
T4 sequence (P03952 20-390 partner limits assumed): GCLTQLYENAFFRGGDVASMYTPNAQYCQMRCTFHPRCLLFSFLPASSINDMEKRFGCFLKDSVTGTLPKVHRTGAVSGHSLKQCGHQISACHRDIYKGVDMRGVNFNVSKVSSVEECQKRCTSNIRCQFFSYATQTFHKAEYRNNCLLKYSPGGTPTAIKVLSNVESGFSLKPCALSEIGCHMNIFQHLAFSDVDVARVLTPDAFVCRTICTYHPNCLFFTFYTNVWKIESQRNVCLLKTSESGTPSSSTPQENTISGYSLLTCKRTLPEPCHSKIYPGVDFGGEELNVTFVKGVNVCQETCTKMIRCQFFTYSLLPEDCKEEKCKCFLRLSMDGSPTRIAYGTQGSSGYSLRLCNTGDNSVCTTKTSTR
T3 sequence (P03951 388-625 limits assumed): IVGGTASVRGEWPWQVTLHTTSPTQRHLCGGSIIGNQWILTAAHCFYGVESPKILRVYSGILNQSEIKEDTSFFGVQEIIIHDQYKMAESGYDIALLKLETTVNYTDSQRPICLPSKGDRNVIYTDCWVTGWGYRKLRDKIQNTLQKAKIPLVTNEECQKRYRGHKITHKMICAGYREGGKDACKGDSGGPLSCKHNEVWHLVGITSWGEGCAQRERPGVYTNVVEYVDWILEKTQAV
T3 sequence (P03951 19-387 partner limits assumed): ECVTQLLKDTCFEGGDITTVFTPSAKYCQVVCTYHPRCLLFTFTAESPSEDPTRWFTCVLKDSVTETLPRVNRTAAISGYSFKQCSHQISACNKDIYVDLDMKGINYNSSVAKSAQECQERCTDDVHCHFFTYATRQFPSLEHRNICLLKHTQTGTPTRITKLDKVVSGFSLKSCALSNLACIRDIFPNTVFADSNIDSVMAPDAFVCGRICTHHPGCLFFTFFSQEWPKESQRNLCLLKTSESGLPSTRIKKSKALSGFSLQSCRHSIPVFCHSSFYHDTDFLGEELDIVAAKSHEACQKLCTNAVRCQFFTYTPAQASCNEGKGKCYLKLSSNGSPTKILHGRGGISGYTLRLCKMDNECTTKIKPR
T5 sequence (P00742 235-488 limits assumed): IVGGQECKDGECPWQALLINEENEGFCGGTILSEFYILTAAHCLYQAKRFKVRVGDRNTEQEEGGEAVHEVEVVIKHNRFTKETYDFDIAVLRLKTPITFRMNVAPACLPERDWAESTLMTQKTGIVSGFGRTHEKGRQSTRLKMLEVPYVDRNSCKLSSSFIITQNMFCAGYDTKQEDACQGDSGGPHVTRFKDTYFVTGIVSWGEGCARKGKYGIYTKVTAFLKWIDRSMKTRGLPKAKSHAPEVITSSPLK
T5 sequence (P00742 41-179 partner limits assumed): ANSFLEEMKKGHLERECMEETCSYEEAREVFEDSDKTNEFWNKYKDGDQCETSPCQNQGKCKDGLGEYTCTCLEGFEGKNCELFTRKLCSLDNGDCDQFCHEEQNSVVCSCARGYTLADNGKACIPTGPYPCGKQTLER

Q: O=C(O)CC(O)(CC(=O)O)C(=O)O [citrate, trisodium citrate] was tested. Which “thrombocytes showing normal propagation on plastic object carriers” value [1] did it give?
A: less than 10%

Q: What about the “induced aggregation relative to the initial value” [2] of the same molecule?
A: 20 to 30 % of the initial value

Q: For CC(=N)N1CC[C@H](Oc2ccc([C@H](Cc3ccc4ccc(C(=N)N)cc4c3)C(=O)O)cc2)C1 [DX-9065a], which Ki [3] is on record?
A: 92 µM

Q: What about the Ki [4] of the same molecule?
A: 340 nM

Q: And the Anticoagulation time [5, 10]?
A: 5 to 7 h

Q: And the Anticoagulation time [5, 11]?
A: 7 to 12 h

Q: What about the Ki [6] of the same molecule?
A: 2300 nM

Q: What about the Ki [7] of the same molecule?
A: 530 nM

Q: What does the source list for N=C(N)NCCC[C@@H](NS(=O)(=O)Cc1ccccc1)C(=O)NCC(=O)NCc1ccc(C(=N)N)cc1 [CJ-FXa, benzylsulphonyl-D-arginyl-glycyl-4-amidinobenzylamide]?
A: Ki [3]: 9.6 µM; Ki [4]: 350 nM; Anticoagulation time ([5]; 4° C., concentration in the blood 500 μM): >48 h; Anticoagulation time [5, 10]: approx. 24 h; Anticoagulation time ([5]; 25° C., concentration in the blood 50 μM, listed as CJ-Fxa): 12 to 24 h; Anticoagulation time [5, 11]: >48 h; Ki [6]: 800 nM; Ki [7]: 84 nM; Ki [8]: 3.5 nM

Q: Which “suppression of thrombin formation after kaolin activation” value [9] does the source give for “benzylsulphonyl-D-seryl-carbobenzoxylsyl-4-amidinobenzylamide [CJ-PK]” here?
A: suppress thrombin formation effectively

Q: What about the Ki [3] of the same molecule?
A: 3.8 µM

Q: What about the Ki [4] of the same molecule?
A: 12000 nM

Q: And the Ki [6]?
A: 250 nM

Q: What about the Ki [7] of the same molecule?
A: 3.5 nM

Q: And the Ki [8]?
A: 2900 nM

Q: How did the Ki [3] turn out when N=C(N)NCCC[C@@H](NS(=O)(=O)Cc1ccccc1)C(=O)N1CCC[C@H]1C(=O)NCc1ccc(C(=N)N)cc1 [BAPA′, benzylsulphonyl-D-arginyl-prolyl-4-amidinobenzylamide] was run?
A: 0.83 µM

Q: And the Ki [4]?
A: 130 nM

Q: What about the Ki [6] of the same molecule?
A: 27 nM
